Data reported in patent publication US9695155B2, “Herbicidal substituted pyrimidinyloxy benzene compounds” (E. I. DU PONT DE NEMOURS AND COMPANY, priority 2013, dated 2017).

Key:
Assay in all cases: Test C preemergence
waterhemp = type: in vivo, Amaranthus rudis; conditions: for Waterhemp plant response rating: preemergence, scale 0 (no effect) to 100 (complete control)
Description: (§1) Seeds of plant species selected from blackgrass (Alopecurus myosuroides), Italian ryegrass (Lolium multiflorum), wheat, winter (winter wheat, Triticum aestivum), galium (catchweed bedstraw, Galium aparine), corn (Zea mays), large (Lg) crabgrass (Digitaria sanguinalis), giant foxtail (Setaria faberii), johnsongrass (Sorghum halepense), lambsquarters (Chenopodium album), morningglory (Ipomoea coccinea), yellow nutsedge (Cyperus esculentus), pigweed (Amaranthus retroflexus), ragweed (common ragweed, Ambrosia elatior), soybean (Glycine max), barnyardgrass (Echinochloa crus-galli), oilseed rape (Brassica napus), waterhemp (common waterhemp, Amaranthus rudis), kochia (Kochia scoparia), wild oat (Avena fatua), surinam grass (Brachiaria decumbens), foxtail, green (green foxtail, Setaria viridis), goosegrass (Eleusine indica), bromegrass, downy (downy bromegrass, Bromus tectorum), nightshade (eastern black nightshade, Solanum ptycanthum), cocklebur (common cocklebur, Xanthium strumarium), cupgrass, woolly (woolly cupgrass, Eriochloa villosa), bermudagrass (Cynodon dactylon), sunflower, (common oilseed sunflower, Helianthus annuus), Russian thistle (Salsola kali), and velvetleaf (Abutilon theophrasti) were planted into a blend of loam soil and sand and treated preemergence with test chemicals formulated in a non-phytotoxic solvent mixture which included a surfactant.
(§2) At the same time, plants selected from these crop and weed species and also barley, winter (winter barley, Hordeum vulgare), windgrass (Apera spica-venti), chickweed (common chickweed, Stellaria media), deadnettle (henbit deadnettle, Lamium amplexicaule), and canarygrass (littleseed canarygrass, Phalaris minor) were planted in pots containing Redi-Earth® planting medium (Scotts Company, 14111 Scottslawn Road, Marysville, Ohio 43041) comprising spaghnum peat moss, vermiculite, wetting agent and starter nutrients and treated with postemergence applications of test chemicals formulated in the same manner. Plants ranged in height from 2 to 18 cm (1- to 4-leaf stage) for postemergence treatments. Treated plants and controls were maintained in a greenhouse for 13 to 15 days, after which time all species were compared to controls and visually evaluated. Plant response ratings, summarized in Table C, are based on a scale of 0 to 100 where 0 is no effect and 100 is complete control. A dash (-) response means no test result.

ragweed = type: in vivo, Ambrosia elatior; conditions: for Ragweed plant response rating: preemergence, scale 0 (no effect) to 100 (complete control)
Description: as §1, §2

galium = type: in vivo, Galium aparine; conditions: for Galium plant response rating: preemergence, scale 0 (no effect) to 100 (complete control)
Method in brief: (§3)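 Sown in loam/sand → sprayed pre-emergence; or grown to 1–4 leaves in peat mix → sprayed post-emergence. Same solvent/surfactant formulation both ways. Greenhouse 13–15 d. Score 0–100 visual.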

barnyardgrass = type: in vivo, Echinochloa crus-galli; conditions: for Barnyardgrass plant response rating: preemergence, scale 0 (no effect) to 100 (complete control)
Method in brief: as §3

lambsquarters = type: in vivo, Chenopodium album; conditions: for Lambsquarters plant response rating: preemergence, scale 0 (no effect) to 100 (complete control)
Description: as §1, §2

velvetleaf = type: in vivo, Abutilon theophrasti; conditions: for Velvetleaf plant response rating: preemergence, scale 0 (no effect) to 100 (complete control)
Description: as §1, §2

oilseed rape = type: in vivo, Brassica napus; conditions: for Oilseed Rape plant response rating: preemergence, scale 0 (no effect) to 100 (complete control)
Method in brief: as §3

morningglory = type: in vivo, Ipomoea coccinea; conditions: for Morningglory plant response rating: preemergence, scale 0 (no effect) to 100 (complete control)
Description: as §1, §2

large (Lg) crabgrass = type: in vivo, Digitaria sanguinalis; conditions: for Crabgrass, Large plant response rating: preemergence, scale 0 (no effect) to 100 (complete control)
Method in brief: as §3

soybean = type: in vivo, Glycine max; conditions: for Soybean plant response rating: preemergence, scale 0 (no effect) to 100 (complete control)
Method in brief: as §3

giant foxtail = type: in vivo, Setaria faberii; conditions: for Foxtail, Giant plant response rating: preemergence, scale 0 (no effect) to 100 (complete control)
Method in brief: as §3

blackgrass = type: in vivo, Alopecurus myosuroides; conditions: for Blackgrass plant response rating: preemergence, scale 0 (no effect) to 100 (complete control)
Method in brief: as §3

pigweed = type: in vivo, Amaranthus retroflexus; conditions: for Pigweed plant response rating: preemergence, scale 0 (no effect) to 100 (complete control)
Description: as §1, §2

[1] = Preemergence, 31 g ai/ha, scale 0 to 100, 0 no effect, 100 complete control

`N#Cc1cccc(Oc2ncc(Cl)cn2)c1-n1cc(Cl)cn1` [Compound 72] was tested, and the “Waterhemp plant response rating” value (waterhemp; 62 g ai/ha) was 100, the “Waterhemp plant response rating” value (waterhemp; 125 g ai/ha) was 100 and the “Waterhemp plant response rating” value (waterhemp; 250 g ai/ha) was 100. For the same molecule, the “Plant response rating, Waterhemp” value (waterhemp; [1]) was 100, the “Ragweed plant response rating” value (ragweed; 62 g ai/ha) was 75 and the “Ragweed plant response rating” value (ragweed; 125 g ai/ha) was 85. The “Ragweed plant response rating” value (ragweed; 250 g ai/ha) was 95, the “Plant response rating, Ragweed” value (ragweed; [1]) was 55 and the “Galium plant response rating” value (galium; 62 g ai/ha) was 90. For the same molecule, the “Galium plant response rating” value (galium; 125 g ai/ha) was 90, the “Galium plant response rating” value (galium; 250 g ai/ha) was 95 and the “Plant response rating, Galium” value (galium; [1]) was 80. The “Barnyardgrass plant response rating” value (barnyardgrass; 62 g ai/ha) was 100, the “Barnyardgrass plant response rating” value (barnyardgrass; 125 g ai/ha) was 100 and the “Barnyardgrass plant response rating” value (barnyardgrass; 250 g ai/ha) was 100. For the same molecule, the “Plant response rating, Barnyardgrass” value (barnyardgrass; [1]) was 75, the “Lambsquarters plant response rating” value (lambsquarters; 62 g ai/ha) was 100 and the “Lambsquarters plant response rating” value (lambsquarters; 125 g ai/ha) was 100. The “Lambsquarters plant response rating” value (lambsquarters; 250 g ai/ha) was 100, the “Plant response rating, Lambsquarters” value (lambsquarters; [1]) was 98 and the “Velvetleaf plant response rating” value (velvetleaf; 62 g ai/ha) was 95. The “Velvetleaf plant response rating” value (velvetleaf; 125 g ai/ha) was 100, the “Velvetleaf plant response rating” value (velvetleaf; 250 g ai/ha) was 100 and the “Plant response rating, Velvetleaf” value (velvetleaf; [1]) was 60. For the same molecule, the “Oilseed Rape plant response rating” value (oilseed rape; 62 g ai/ha) was 100, the “Oilseed Rape plant response rating” value (oilseed rape; 125 g ai/ha) was 100 and the “Oilseed Rape plant response rating” value (oilseed rape; 250 g ai/ha) was 100. For the same molecule, the “Plant response rating, Oilseed Rape” value (oilseed rape; [1]) was 65, the “Morningglory plant response rating” value (morningglory; 62 g ai/ha) was 85 and the “Morningglory plant response rating” value (morningglory; 125 g ai/ha) was 100. For the same molecule, the “Morningglory plant response rating” value (morningglory; 250 g ai/ha) was 100, the “Plant response rating, Morningglory” value (morningglory; [1]) was 15 and the “Crabgrass, Large plant response rating” value (large (Lg) crabgrass; 62 g ai/ha) was 100. For the same molecule, the “Crabgrass, Large plant response rating” value (large (Lg) crabgrass; 125 g ai/ha) was 100, the “Crabgrass, Large plant response rating” value (large (Lg) crabgrass; 250 g ai/ha) was 100 and the “Plant response rating, Crabgrass, Large” value (large (Lg) crabgrass; [1]) was 100. For the same molecule, the “Soybean plant response rating” value (soybean; 62 g ai/ha) was 55, the “Soybean plant response rating” value (soybean; 125 g ai/ha) was 80 and the “Soybean plant response rating” value (soybean; 250 g ai/ha) was 85. The “Plant response rating, Soybean” value (soybean; [1]) was 40, the “Foxtail, Giant plant response rating” value (giant foxtail; 62 g ai/ha) was 100 and the “Foxtail, Giant plant response rating” value (giant foxtail; 125 g ai/ha) was 100. The “Foxtail, Giant plant response rating” value (giant foxtail; 250 g ai/ha) was 100, the “Plant response rating, Foxtail, Giant” value (giant foxtail; [1]) was 100 and the “Blackgrass plant response rating” value (blackgrass; 62 g ai/ha) was 90. For the same molecule, the “Blackgrass plant response rating” value (blackgrass; 125 g ai/ha) was 90, the “Blackgrass plant response rating” value (blackgrass; 250 g ai/ha) was 95 and the “Plant response rating, Blackgrass” value (blackgrass; [1]) was 50. The “Pigweed plant response rating” value (pigweed; 62 g ai/ha) was 100, the “Pigweed plant response rating” value (pigweed; 125 g ai/ha) was 100 and the “Pigweed plant response rating” value (pigweed; 250 g ai/ha) was 100. For the same molecule, the “Plant response rating, Pigweed” value (pigweed; [1]) was 100.
